Type in all cases: cell-based
Common to all, as to details: substance alone

Experiment [1] concerns Streptococcus agalactiae. Put plainly: Minimum Bactericidal Concentration (MBC) in liquid medium against Streptococcus agalactiae. As for the experimental part:
Three Streptococcus agalactiae strains isolated from vaginal-rectal buffers during the prenatal check-ups were used for the assay. The strains were named “strain 2”, “strain 10” and “strain 11”. Isolation was carried out on a blood agar medium and identification was obtained through biochemical tests of the API 20 Strep (Bio-Mérieux) system and through the identification of the Lancefield group.
The experiments were also carried out on a Streptococcus agalactiae ATCC 12386 strain.
“Brain Heart Infusion broth” (BHIb, Becton Dickinson) medium was used for the Streptococcus agalactiae culture, “Mueller-Hinton broth” (M-Hb) medium after adding 2% “laked” horse blood and the “Mueller-Hinton agar” (M-Ha) medium with addition of defibrinated horse blood at 5% (Oxoid) were used for the antimicrobial activity assays.
The Streptococcus agalactiae strains were cultured in BHIb broth for 24 hours at 37° C. Immediately before the assay, the bacterial suspensions were diluted up to obtaining turbidity equivalent to 0.5 McFarland standard. 50 μl of a further 1:100 dilution in broth+blood at 2% were distributed in the wells of the microtitre plates. The presumed titre of the inoculum carried out through this procedure is of about 5×10^4 ufc (units forming colony)/well.
The bacterial cultures were also diluted serially according to a value 10 (up to a dilution value equivalent to 10^−7) and an aliquot of 0.1 ml of each dilution was double streaked on M-Ha +blood 5% for determining the actual titre to be used, subsequently, to determine the MBC (Minimum Bactericidal Concentration).
The assay was carried out in 96-well microtitre plates. 50 μl of M-Hb at normal concentration were deposited in the first well of each of the 5 rows. Starting from the first well of each row, […] volumes were transferred from each well to the subsequent one 10 times, thus obtaining a series of dilutions after doubling. The 12th well of each row was kept substance-free as a positive control of the bacterial growth.
Subsequently, 50 μl of bacterial inoculum of M-Hb+double concentration blood (4%) were deposited in all wells of the plate, except for the 11th of each row. Only M-Hb+double concentration blood but bacteria-free, were deposited in the 11th well, with the aim of providing negative control for each row. The described scheme was used for the assay of each of the three Streptococcus agalactiae strains.
(§1) Immediately after determining the value of the MIC for each substance, a volume equivalent to 50 μl was taken from each well and streaked on the surface of plates containing the solid medium. The plates were subsequently incubated at the conditions indicated for each microbial strain. After incubation at 37° C. for 24 hours, the number of colonies grown on the medium surface was counted thus determining the number of bacteria that survived after 24 hours of contact with the substance at the concentration present in the well. The MBC value defined as the lowest concentration of each substance capable of reducing the bacterial load by 99.9% in the previously defined assay conditions was determined through comparison between the number of bacteria that survived in each well and that of the bacterial inoculum deposited initially.

Experiment [2] relates to Lactobacillus gasseri NCIMB 702820. Nature of the experiment: MIC against Lactobacillus gasseri. As for the experimental part:
The vaginal lactobacillus strains used are the NCIMB 4505 strain of Lactobacillus crispatus, the NCIMB 13279 strain of Lactobacillus jensenii and NCIMB 702820 strain of Lactobacillus gasseri. [table] The other assayed microbial strains were cultured in the liquid media and in the incubation conditions specified in table A, following the operating procedure described above. The assay was carried out in 96-well microtitre plates. 50 μl of substance solution at the “mother” concentration alongside 50 μl of liquid medium at double concentration were deposited in the first well of each of the 8 rows while 50 μl of liquid medium at normal concentration were deposited in the remaining 11 wells. Starting from the first well of each row, 50 μl volumes were transferred from each well to the subsequent one 10 times, thus obtaining a series of 11 dilutions after doubling. The 12th well of each row was kept substance-free as a function of positive control of the bacterial growth. Subsequently, 50 μl of diluted bacterial inoculum as specified previously were deposited in all wells of the plate, except for the 11th of each row. Only the liquid medium at single concentration but bacteria-free, was deposited in the 11th well, with the aim of providing negative control for each row. The described scheme was used for the assay with each of the assayed microbial strains. […]

Experiment [3] relates to Candida albicans ATCC 10231. Put plainly: MBC against Candida albicans. As for the experimental part: as §1, with “The Gardnerella vaginalis ATCC 14018 strain, the Neisseria gonorrhoeae ATCC 43069 strain and the Candida albicans ATCC 10231 strain were also used for the experiment. [table] The other assayed microbial strains were cultured in the liquid media and in the incubation conditions specified in table A, following the operating procedure described above. Immediately” for “Immediately”

The subject of experiment [4] is Neisseria gonorrhoeae ATCC 43069. Nature of the experiment: MIC against Neisseria gonorrhoeae. The method, then:
The Gardnerella vaginalis ATCC 14018 strain, the Neisseria gonorrhoeae ATCC 43069 strain and the Candida albicans ATCC 10231 strain were also used for the experiment.
The other assayed microbial strains were cultured in the liquid media and in the incubation conditions specified in table A, following the operating procedure described above.
The assay was carried out in 96-well microtitre plates. 50 μl of substance solution at the “mother” concentration alongside 50 μl of liquid medium at double concentration were deposited in the first well of each of the 8 rows while 50 μl of liquid medium at normal concentration were deposited in the remaining 11 wells. Starting from the first well of each row, 50 μl volumes were transferred from each well to the subsequent one 10 times, thus obtaining a series of 11 dilutions after doubling. The 12th well of each row was kept substance-free as a function of positive control of the bacterial growth.
Subsequently, 50 μl of diluted bacterial inoculum as specified previously were deposited in all wells of the plate, except for the 11th of each row. Only the liquid medium at single concentration but bacteria-free, was deposited in the 11th well, with the aim of providing negative control for each row. The described scheme was used for the assay with each of the assayed microbial strains. […]

In the case of “caprylyl/capryl glucoside/C8-C10 alkyl polyglucoside [Substance A1]”, the MBC in experiment [1] (ATCC 12386 in M-Hb blood 2%) is recorded as 0.097; in experiment [1] (Strain 2 in M-Hb blood 2%) it was 0.097; in experiment [1] (Strain 10 in M-Hb blood 2%) it was 0.194; in experiment [1] (Strain 11 in M-Hb blood 2%), 0.097. The MIC in experiment [2] was 0.097%.
Turning to “lauryl glucoside/C12-C16 alkyl polyglucoside [Substance A2]”, the MBC turned out to be 0.0097 in experiment [1] (ATCC 12386 in M-Hb blood 2%); 0.0097 in experiment [1] (Strain 2 in M-Hb blood 2%); 0.019 in experiment [1] (Strain 10 in M-Hb blood 2%); 0.0097 in experiment [1] (Strain 11 in M-Hb blood 2%); 0.154% in experiment [3]. Further, the MIC is listed as 0.077% in experiment [2] and “≦0.0012%” in experiment [4].

Values taken from patent publication US20140051650A1, “VAGINAL COMPOSITIONS BASED ON ALKYL POLYGLUCOSIDES” (EFFIK S.A., priority 2011, published 2014).
